Experimental data taken from the NIST ThermoML archive (doi:10.1016/j.jct.2011.08.016).

Assay: xn = mol fraction of the nth substance listed
Conditions: Liquid, Vibrating tube method

CCCCCCCCCC [decane] + CCCCCCCC
Conditions | mass density [kg/m3]
313.19 K, 10000 kPa, x2 = 0.5314 | 710.43
313.19 K, 10000 kPa, x2 = 0.7736 | 703.28
313.19 K, 10990 kPa, x2 = 0.5314 | 711.26
313.19 K, 10990 kPa, x2 = 0.7736 | 704.16
313.19 K, 12000 kPa, x2 = 0.5314 | 712.06
313.19 K, 12000 kPa, x2 = 0.7736 | 705
313.19 K, 13000 kPa, x2 = 0.5314 | 712.86
313.19 K, 13000 kPa, x2 = 0.7736 | 705.81
313.19 K, 14000 kPa, x2 = 0.5314 | 713.65
313.19 K, 14000 kPa, x2 = 0.7736 | 706.63
313.19 K, 15000 kPa, x2 = 0.5314 | 714.44
313.19 K, 15000 kPa, x2 = 0.7736 | 707.47
313.19 K, 16000 kPa, x2 = 0.5314 | 715.21
313.19 K, 16000 kPa, x2 = 0.7736 | 708.28
313.19 K, 17000 kPa, x2 = 0.5314 | 715.97
313.19 K, 17000 kPa, x2 = 0.7736 | 709.1
313.19 K, 18000 kPa, x2 = 0.5314 | 716.73
313.19 K, 18000 kPa, x2 = 0.7736 | 709.83
313.19 K, 19000 kPa, x2 = 0.5314 | 717.47
313.19 K, 19000 kPa, x2 = 0.7736 | 710.61
313.19 K, 20000 kPa, x2 = 0.5314 | 718.2
313.19 K, 20000 kPa, x2 = 0.7736 | 711.34
313.19 K, 21000 kPa, x2 = 0.5314 | 718.89
313.19 K, 21000 kPa, x2 = 0.7736 | 712.07
313.19 K, 22000 kPa, x2 = 0.5314 | 719.56
313.19 K, 22000 kPa, x2 = 0.7736 | 712.79
313.19 K, 23000 kPa, x2 = 0.5314 | 720.23
313.19 K, 23000 kPa, x2 = 0.7736 | 713.47
313.19 K, 24000 kPa, x2 = 0.5314 | 720.88
313.19 K, 24000 kPa, x2 = 0.7736 | 714.14
313.19 K, 25000 kPa, x2 = 0.5314 | 721.52
313.19 K, 25000 kPa, x2 = 0.7736 | 714.77
323.13 K, 1000 kPa, x2 = 0.2801 | 701.5
323.13 K, 2000 kPa, x2 = 0.2801 | 702.42
323.13 K, 3000 kPa, x2 = 0.2801 | 703.33
323.13 K, 4000 kPa, x2 = 0.2801 | 704.26
323.13 K, 5000 kPa, x2 = 0.2801 | 705.16
323.13 K, 6000 kPa, x2 = 0.2801 | 706.06
323.13 K, 7000 kPa, x2 = 0.2801 | 706.95
323.13 K, 8000 kPa, x2 = 0.2801 | 707.83
323.13 K, 9000 kPa, x2 = 0.2801 | 708.7
323.13 K, 10000 kPa, x2 = 0.2801 | 709.57
323.13 K, 10990 kPa, x2 = 0.2801 | 710.5
323.13 K, 12000 kPa, x2 = 0.2801 | 711.29
323.13 K, 13000 kPa, x2 = 0.2801 | 712.12
323.13 K, 14000 kPa, x2 = 0.2801 | 712.97
323.13 K, 15000 kPa, x2 = 0.2801 | 713.78
323.13 K, 16000 kPa, x2 = 0.2801 | 714.58
323.13 K, 17000 kPa, x2 = 0.2801 | 715.38
323.13 K, 18000 kPa, x2 = 0.2801 | 716.14
323.13 K, 19000 kPa, x2 = 0.2801 | 716.9
323.13 K, 20000 kPa, x2 = 0.2801 | 717.66
323.13 K, 21000 kPa, x2 = 0.2801 | 718.38
323.13 K, 22000 kPa, x2 = 0.2801 | 719.06
323.13 K, 23000 kPa, x2 = 0.2801 | 719.71
323.13 K, 24000 kPa, x2 = 0.2801 | 720.38
323.13 K, 25000 kPa, x2 = 0.2801 | 721
323.15 K, 1000 kPa, x2 = 0.5314 | 694.85
323.15 K, 1000 kPa, x2 = 0.7736 | 687.38
323.15 K, 1000 kPa, x2 = 0.9623 | 680.8
323.15 K, 2000 kPa, x2 = 0.5314 | 695.78
323.15 K, 2000 kPa, x2 = 0.7736 | 688.41
323.15 K, 2000 kPa, x2 = 0.9623 | 681.8
323.15 K, 3000 kPa, x2 = 0.5314 | 696.73
323.15 K, 3000 kPa, x2 = 0.7736 | 689.33
323.15 K, 3000 kPa, x2 = 0.9623 | 682.74
323.15 K, 4000 kPa, x2 = 0.5314 | 697.62
323.15 K, 4000 kPa, x2 = 0.7736 | 690.27
323.15 K, 4000 kPa, x2 = 0.9623 | 683.68
323.15 K, 5000 kPa, x2 = 0.5314 | 698.58
323.15 K, 5000 kPa, x2 = 0.7736 | 691.21
323.15 K, 5000 kPa, x2 = 0.9623 | 684.65
323.15 K, 6000 kPa, x2 = 0.5314 | 699.53
323.15 K, 6000 kPa, x2 = 0.7736 | 692.18
323.15 K, 6000 kPa, x2 = 0.9623 | 685.6
323.15 K, 7000 kPa, x2 = 0.5314 | 700.45
323.15 K, 7000 kPa, x2 = 0.7736 | 693.12
323.15 K, 7000 kPa, x2 = 0.9623 | 686.57
323.15 K, 8000 kPa, x2 = 0.5314 | 701.36
323.15 K, 8000 kPa, x2 = 0.7736 | 694.08
323.15 K, 8000 kPa, x2 = 0.9623 | 687.54
323.15 K, 9000 kPa, x2 = 0.5314 | 702.24
323.15 K, 9000 kPa, x2 = 0.7736 | 694.99
323.15 K, 9000 kPa, x2 = 0.9623 | 688.5
323.15 K, 10000 kPa, x2 = 0.5314 | 703.12
323.15 K, 10000 kPa, x2 = 0.7736 | 695.89
323.15 K, 10000 kPa, x2 = 0.9623 | 689.46
323.15 K, 10990 kPa, x2 = 0.5314 | 703.99
323.15 K, 10990 kPa, x2 = 0.7736 | 696.8
323.15 K, 10990 kPa, x2 = 0.9623 | 690.4
323.15 K, 12000 kPa, x2 = 0.5314 | 704.86
323.15 K, 12000 kPa, x2 = 0.7736 | 697.73
323.15 K, 12000 kPa, x2 = 0.9623 | 691.34
323.15 K, 13000 kPa, x2 = 0.5314 | 705.72
